The results in this text go back to patent publication US7235559B1, “Therapeutic quinazoline derivatives” (AstraZeneca AB, priority 1999, dated 2007).

The target in one experiment is T1, aurora2 kinase (Homo sapiens, UniProt O14965).
T1 construct: made in house; host or cells: Spodoptera frugiperda Sf21 insect cells (baculovirus)
T1 sequence (O14965 1-403): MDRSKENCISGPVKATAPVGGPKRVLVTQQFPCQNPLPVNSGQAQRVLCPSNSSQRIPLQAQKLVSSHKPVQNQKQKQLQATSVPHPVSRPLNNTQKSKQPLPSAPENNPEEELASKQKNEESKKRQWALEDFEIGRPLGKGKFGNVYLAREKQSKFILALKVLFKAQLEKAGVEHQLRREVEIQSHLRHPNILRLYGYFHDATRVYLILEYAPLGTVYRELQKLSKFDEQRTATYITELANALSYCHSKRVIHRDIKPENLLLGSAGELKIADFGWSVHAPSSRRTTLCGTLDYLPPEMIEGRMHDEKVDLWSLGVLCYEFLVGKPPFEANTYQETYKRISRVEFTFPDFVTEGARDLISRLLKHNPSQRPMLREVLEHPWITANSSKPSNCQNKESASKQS
As to the kind of experiment: In Vitro aurora2 kinase inhibition test. The class given is biochemical.

Experiment [1] has as its system MCF-7 cells. As to the kind of experiment: In Vitro cell proliferation assay, Assay 1 (CyQUANT cell density). In kind it is cell-based. The settings on record: Homo sapiens, MCF7, 72 h, MCF-7, 3 days in presence of compound, read-out: concentration giving 50% inhibition of cell proliferation. The text has this:
(§1) These and other assays can be used to determine the ability of a test compound to inhibit the growth of adherent mammalian cell lines, for example the human tumour cell line MCF7.
MCF-7 (ATCC HTB-22) or other adherent cells were typically seeded at 1×10^3 cells per well (excluding the peripheral wells) in DMEM (Sigma Aldrich) without phenol red, plus 10% foetal calf serum, 1% L-glutamine and 1% penicillin/streptomycin in 96 well tissue culture treated clear plates (Costar). The following day (day 1), the media was removed from a no treatment control plate and the plate stored at −80° C. The remaining plates were dosed with compound (diluted from 10 mM stock in DMSO using DMEM (without phenol red, 10% FCS, 1% L-glutamine, 1% penicillin/streptomycin). Untreated control wells were included on each plate. After 3 days in the presence/absence of compound (day 4) the media was removed and the plates stored at −80° C. Twenty four hours later the plates were thawed at room temperature and cell density determined using the CyQUANT cell proliferation assay kit (c-7026/c-7027 Molecular Probes Inc.) according to manufacturers directions. Briefly, 200 μl of cell lysis/dye mixture (10 μl of 20× cell lysis buffer B, 190 μl of sterile water, 0.25 μl of CYQUANT GR dye) was added to each well and the plates incubated at room temperature for 5 minutes in the dark. […]

The subject of experiment [2] is MCF-7 cells. In words: In Vitro cell proliferation assay, Assay 2 (BrdU incorporation). The settings on record: Homo sapiens, MCF7; MCF-7, 48 hours with compound, 2 hour BrdU labelling; read-out: concentration giving 50% inhibition of BrdU incorporation. The class given is cell-based.
Text: as §1
This assay determines the ability of at test compound to inhibit the incorporation of the thymidine analogue, 5′-bromo-2′-deoxy-uridine (BrdU) into cellular DNA. MCF-7 or other adherent cells were typically seeded at 0.8×10^4 cells per well in DMEM (Sigma Aldrich) without phenol red, plus 10% foetal calf serum, 1% L-glutamine and 1% penicillin/streptomycin (50 μl/well) in 96 well tissue culture treated 96 well plates (Costar) and allowed to adhere overnight. […] The optical density of the wells was then determined at 690 nm wavelength using a Titertek Multiscan plate reader. […]

The next experiment deals with MCF7 cells. In words: In Vitro cell cycle analysis assay (FACS). The class given is cell-based, human. Conditions: 10 μM, 24 hours. On the procedure:
This assay determines the ability of a test compound to arrest cells in specific phases of the cell cycle. Many different mammalian cell lines could be used in this assay and MCF7 cells are included here as an example. MCF-7 cells were seeded at 3×10^5 cells per T25 flask (Costar) in 5 ml DMEM (no phenol red 10% FCS, 1% L-glutamine 1% penicillin/streptomycin). Flasks were then incubated overnight in a humidified 37° C. incubator with 5% CO2. The following day 1 ml of DMEM (no phenol red 10% FCS, 1% L-glutamine 1% penicillin/streptomycin) carrying the appropriate concentration of test compound solubilised in DMSO was added to the flask. A no compound control treatments was also included (0.5% DMSO). The cells were then incubated for a defined time (usually 24 hours) with compound. After this time the media was aspirated from the cells and they were washed with 5 ml of prewarmed (37° C.) sterile PBSA, then detached from the flask by brief incubation with trypsin and followed by resuspension in 10 ml of 1% Bovine Serum Albumin (BSA, Sigma-Aldrich Co.) in sterile PBSA. The samples were then centrifuged at 2200 rpm for 10 min. The supernatant was aspirated and the cell pellet was resuspended in 200 μl of 0.1% (w/v) Tris sodium citrate, 0.0564% (w/v) NaCl, 0.03% (v/v) Nonidet NP40, [pH 7.6]. Propridium Iodide (Sigma Aldrich Co.) was added to 40 μg/ml and RNAase A (Sigma Aldrich Co.) to 100 μg/ml. The cells were then incubated at 37° C. for 30 minutes. The samples were centrifuged at 2200 rpm for 10 min, the supernatant removed and the remaining pellet (nuclei) resuspended in 200 μl of sterile PBSA. […] The samples were then transferred to LPS tubes and DNA content per cell analysed by Fluorescence activated cell sorting (FACS) using a FACScan flow cytometer (Becton Dickinson). Typically 25000 events were counted and recorded using CellQuest v1.1 software (Verity Software). Cell cycle distribution of the population was calculated using Modfit software (Verity Software) and expressed as percentage of cells in G0/G1, S and G2/M phases of the cell cycle. […]

In turn, `COc1cc2ncnc(Nc3cnc(NC(=O)c4ccccc4)nc3)c2cc1OC` [Compound 6] yielded an IC50 against aurora2 kinase of 7.85 nM. Besides, in the experiment with MCF-7 cells [1], the IC50 came to 1700 nM. For the same compound, in the experiment on MCF-7 cells [2], the IC50 is 1920 to 2850 nM. For the same compound, in the experiment with MCF7 cells, the “% Cells in G1” value amounted to 43.22%, the “% Cells in G2/M” value turned out to be 30.38% and the “% Cells in S” value is given as 18%.
